Assay results taken from ChEMBL document CHEMBL1128081, “Synthesis of dibenzo[a,d]cycloheptanes as cytokine biosynthesis inhibitors” (Bioorg Med Chem Lett, 1995).

How the values were obtained:
Assay type in all cases: functional
Mus musculus [1] = test: Ability to inhibit the accumulation of gamma-interferon (gamma-IFN) in the serum of […] parvum-primed mice by po administration
Mus musculus [2] = test: Ability to inhibit the accumulation of inflammatory cytokine interleukin-1 alpha (IL-1 alpha) in the serum of […] parvum-primed mice by po administration
Mus musculus [3] = test: Ability to inhibit the accumulation of cytokine interleukin-6 (IL-6) in the serum of […] parvum-primed mice by po administration
Mus musculus [4] = species on record: Mus musculus; test: In vitro inhibitory activity was measured for the release of tumor necrosis factor-alpha (TNF-alpha) from a murine monocytic cell line
Mus musculus [5] = test: Ability to inhibit the accumulation of tumor necrosis factor-alpha (TNF-alpha) in the serum of […] parvum-primed mice by po administration

Row | SMILES | ED50 (Mus musculus [1]) | ED50 (Mus musculus [2]) | ED50 (Mus musculus [3]) | IC50 (Mus musculus [4]) | ED50 (Mus musculus [5])
1 | CCOC1(CCN(C)C)c2ccccc2CCc2ccccc21 | 1.3 mg/kg | 2.4 mg/kg | 8 mg/kg | 1700 nM | 17.6 mg/kg
2 | CN(C)CCC1(O)c2ccccc2CCc2ccccc21 | > 25 mg/kg | > 25 mg/kg | > 25 mg/kg | – | > 25 mg/kg
3 | CCCC1(CCN(C)C)c2ccccc2CCc2ccccc21 | 10.8 mg/kg | 6.25 mg/kg | 23.3 mg/kg | – | –
4 | CCOCC1(CCN(C)C)c2ccccc2CCc2ccccc21 | 13.5 mg/kg | 18.1 mg/kg | > 25 mg/kg | – | 19.6 mg/kg
5 | CCCC1(CN(C)C)c2ccccc2CCc2ccccc21 | 3.9 mg/kg | > 25 mg/kg | 25 mg/kg | – | > 25 mg/kg
6 | CCOC1(CCN(C)C)c2ccccc2CCc2cccnc21 (configuration not stated) | > 25 mg/kg | > 25 mg/kg | > 25 mg/kg | – | > 25 mg/kg
7 | CCOC1(CCN2CCCC2)c2ccccc2CCc2ccccc21 | 11.3 mg/kg | 11.1 mg/kg | – | – | 16.1 mg/kg
8 | CCOCC1(CCNC)c2ccccc2CCc2ccccc21 | > 25 mg/kg | > 25 mg/kg | > 25 mg/kg | – | > 25 mg/kg
9 | CCCCCCC1(CCN(C)C)c2ccccc2CCc2ccccc21 | > 25 mg/kg | > 25 mg/kg | > 25 mg/kg | – | > 25 mg/kg
10 | CCCC1(CCCN(C)C)c2ccccc2CCc2ccccc21 | 5.9 mg/kg | 8.7 mg/kg | 15.8 mg/kg | – | > 25 mg/kg
11 | CCOC1(CCN(C)C)c2ccccc2C=Cc2ccccc21 | 13.2 mg/kg | > 6.25 mg/kg | > 25 mg/kg | – | > 25 mg/kg
12 | CCOC1(CCN(C)C(C)=O)c2ccccc2CCc2ccccc21 | > 25 mg/kg | > 25 mg/kg | > 25 mg/kg | – | > 25 mg/kg
